Laboratory results published in US8258114B2, “Modulation of glucose-6-phosphatase translocase expression” (Isis Pharmaceuticals, Inc., priority 2004, dated 2012).
Oligonucleotides are written 5' to 3', each unit as a sugar letter and its base; * is a phosphorothioate linkage, no mark a phosphodiester; rarer units and linkages stand in square brackets, end groups in braces. Plain capitals give the bases only. e = 2'-O-(2-methoxyethyl) (MOE); [5mC] = 5-methylcytosine; d = 2'-deoxy (DNA)

Tested on: mouse glucose-6-phosphatase translocase mRNA
Assay: Antisense inhibition of mouse glucose-6-phosphatase translocase mRNA in primary mouse hepatocytes, 150 nM, LIPOFECTIN (Table 22)
Type: cell-based
Details: real-time PCR
Experimental: Primary mouse hepatocytes were prepared from CD-1 mice purchased from Charles River Labs. Primary mouse hepatocytes were routinely cultured in Hepatocyte Attachment Media supplemented with 10% fetal bovine serum (Invitrogen Life Technologies, Carlsbad, Calif.), 250 nM dexamethasone, and 10 nM bovine insulin (Sigma-Aldrich, St. Louis, Mo.). Cells were seeded into 96-well plates (Falcon-Primaria #353872, BD Biosciences, Bedford, Mass.) at a density of approximately 4,000-6,000 cells/well for use in oligomeric compound transfection experiments.
When cells reached 65-75% confluency, they were treated with oligonucleotide. Oligonucleotide was mixed with LIPOFECTIN™ Invitrogen Life Technologies, Carlsbad, Calif.) in Opti-MEM™-1 reduced serum medium (Invitrogen Life Technologies, Carlsbad, Calif.) to achieve the desired concentration of oligonucleotide and a LIPOFECTIN™ concentration of 2.5 or 3 μg/mL per 100 nM oligonucleotide. This transfection mixture was incubated at room temperature for approximately 0.5 hours. For cells grown in 96-well plates, wells were washed once with 100 μL OPTI-MEM™-1 and then treated with 130 μL of the transfection mixture. Cells grown in 24-well plates or other standard tissue culture plates are treated similarly, using appropriate volumes of medium and oligonucleotide. Cells are treated and data are obtained in duplicate or triplicate. After approximately 4-7 hours of treatment at 37° C., the medium containing the transfection mixture was replaced with fresh culture medium. Cells were harvested 16-24 hours after oligonucleotide treatment.
Quantitation of glucose 6-phosphatase translocase mRNA levels was accomplished by real-time quantitative PCR using the ABI PRISM™ 7600, 7700, or 7900 Sequence Detection System (PE-Applied Biosystems, Foster City, Calif.) according to manufacturer's instructions.
Prior to quantitative PCR analysis, primer-probe sets specific to the target gene being measured were evaluated for their ability to be “multiplexed” with a GAPDH amplification reaction. After isolation the RNA is subjected to sequential reverse transcriptase (RT) reaction and real-time PCR, both of which are performed in the same well. RT and PCR reagents were obtained from Invitrogen Life Technologies (Carlsbad, Calif.). […] The RT reaction was carried out by incubation for 30 minutes at 48° C. Following a 10 minute incubation at 95° C. to activate the PLATINUM® Taq, 40 cycles of a two-step PCR protocol were carried out: 95° C. for 15 seconds (denaturation) followed by 60° C. for 1.5 minutes (annealing/extension).
Gene target quantities obtained by RT, real-time PCR were normalized using either the expression level of GAPDH, a gene whose expression is constant, or by quantifying total RNA using RiboGreen™ (Molecular Probes, Inc. Eugene, Oreg.). GAPDH expression was quantified by RT, real-time PCR, by being run simultaneously with the target, multiplexing, or separately. Total RNA was quantified using RiboGreen™ RNA quantification reagent (Molecular Probes, Inc. Eugene, Oreg.).
A series of oligomeric compounds was designed to target different regions of mouse glucose-6-phosphatase translocase, using published sequences cited in Table 1. All compounds in Table 22 are chimeric oligonucleotides (“gapmers”) 20 nucleotides in length, composed of a central “gap” region consisting of 10 2′-deoxynucleotides, which is flanked on both sides (5′ and 3′) by five-nucleotide “wings”. The wings are composed of 2′-O-(2-methoxyethyl) nucleotides, also known as 2′-MOE nucleotides. The internucleoside (backbone) linkages are phosphorothioate throughout the oligonucleotide. All cytidine residues are 5-methylcytidines. The compounds were analyzed for their effect on gene target mRNA levels by quantitative real-time PCR as described in other examples herein, using the following primer-probe set designed to hybridize to mouse glucose-6-phosphatase translocase: • forward primer: […]

Substance | % Inhib of mouse glucose-6-phosphatase translocase mRNA levels
145647 (antisense e[5mC]*eT*e[5mC]*eT*eT*dG*dA*d[5mC]*dT*dG*d[5mC]*dT*d[5mC]*d[5mC]*dT*eG*e[5mC]*eT*eT*eG) [compound 145647] | 52%
145648 (antisense e[5mC]*eT*eT*e[5mC]*eT*dG*dA*d[5mC]*d[5mC]*dA*d[5mC]*dA*dG*dA*d[5mC]*eT*e[5mC]*eT*eT*eG) [compound 145648] | 26%
145649 (antisense eG*e[5mC]*e[5mC]*e[5mC]*eA*d[5mC]*dT*d[5mC]*d[5mC]*dA*dG*dT*dA*d[5mC]*dT*eT*e[5mC]*eT*eG*eA) [compound 145649] | 61%
145650 (antisense eA*eA*eG*e[5mC]*eT*dG*dG*d[5mC]*d[5mC]*d[5mC]*dT*dG*d[5mC]*dT*dG*eG*e[5mC]*e[5mC]*e[5mC]*eA) [compound 145650] | 54%
145651 (antisense eG*eT*eA*eG*eA*dA*dA*dA*dA*dG*d[5mC]*dT*dG*dG*d[5mC]*e[5mC]*e[5mC]*eT*eG*e[5mC]) [compound 145651] | 31%
145653 (antisense eT*eT*eG*eG*eG*d[5mC]*dT*dG*d[5mC]*d[5mC]*dA*dT*dG*dG*dT*eA*eG*eA*eA*eA) [compound 145653] | 42%
145654 (antisense eA*eG*eT*eG*e[5mC]*dG*dA*dT*dA*dG*dT*dA*dG*d[5mC]*d[5mC]*eG*eT*eA*eG*e[5mC]) [compound 145654] | 47%
145655 (antisense eA*eA*e[5mC]*eA*eT*dG*dG*d[5mC]*d[5mC]*dG*d[5mC]*dA*dA*dA*dT*eA*eT*eG*eA*e[5mC]) [compound 145655] | 29%
145656 (antisense eT*eA*e[5mC]*eA*eG*dG*d[5mC]*dT*dG*dT*dA*dG*d[5mC]*d[5mC]*dT*e[5mC]*e[5mC]*eA*eA*eA) [compound 145656] | 47%
145658 (antisense eT*eG*eG*eT*e[5mC]*dT*dG*dA*d[5mC]*dA*dG*dA*dA*d[5mC]*d[5mC]*e[5mC]*e[5mC]*eG*e[5mC]*eT) [compound 145658] | 36%
145659 (antisense e[5mC]*eG*e[5mC]*eT*e[5mC]*dA*dT*d[5mC]*dT*dG*dG*dT*d[5mC]*dT*dG*eA*e[5mC]*eA*eG*eA) [compound 145659] | 15%
145660 (antisense eT*eG*eT*eG*eG*dA*dG*d[5mC]*dT*d[5mC]*d[5mC]*dA*dT*dG*dA*eG*eA*eA*eG*eA) [compound 145660] | 40%
145661 (antisense eA*e[5mC]*e[5mC]*eA*eA*dG*dG*dA*dG*d[5mC]*dA*dG*d[5mC]*dA*dA*eA*eG*eG*e[5mC]*eT) [compound 145661] | 25%
145663 (antisense eT*eT*eG*eA*e[5mC]*dA*dA*d[5mC]*dA*d[5mC]*dA*dG*d[5mC]*d[5mC]*d[5mC]*eA*e[5mC]*e[5mC]*eA*eA) [compound 145663] | 48%
145665 (antisense e[5mC]*e[5mC]*eA*eG*e[5mC]*d[5mC]*dA*dG*dG*dT*dT*d[5mC]*dA*dT*dG*e[5mC]*eT*eG*eG*eT) [compound 145665] | 22%
145666 (antisense eA*eA*eG*eA*eT*dA*dG*dG*dT*d[5mC]*d[5mC]*d[5mC]*dA*dA*dA*e[5mC]*eT*eT*e[5mC]*e[5mC]) [compound 145666] | 28%
145669 (antisense e[5mC]*eA*e[5mC]*eA*eG*dT*dG*d[5mC]*d[5mC]*d[5mC]*d[5mC]*dA*dG*dA*d[5mC]*eA*eG*eG*eG*e[5mC]) [compound 145669] | 9%

Substance | % Inhib of mouse glucose-6-phosphatase translocase mRNA levels
145672 (antisense eT*eG*eT*eG*eG*dA*dT*dG*dA*dG*d[5mC]*dA*dG*d[5mC]*dA*eG*eA*e[5mC]*eA*eG) [compound 145672] | 8%
145674 (antisense e[5mC]*eA*eG*e[5mC]*eA*dG*dG*dT*dT*d[5mC]*dA*dT*dT*dG*dT*eG*eG*eA*eT*eG) [compound 145674] | 43%
145675 (antisense eA*eA*e[5mC]*eA*eT*d[5mC]*dA*dG*d[5mC]*dA*dG*dG*dT*dT*d[5mC]*eA*eT*eT*eG*eT) [compound 145675] | 23%
145676 (antisense GAGTCCAACATCAGCAGGTTCA; 2'-MOE gapmer, further chemistry not given here) [compound 145676] | 51%
145677 (antisense e[5mC]*eT*eT*e[5mC]*eT*dT*dG*d[5mC]*d[5mC]*d[5mC]*dT*d[5mC]*dA*dG*dA*eG*eG*eG*e[5mC]*eA) [compound 145677] | 9%
145678 (antisense eG*eA*eG*e[5mC]*e[5mC]*d[5mC]*dT*dT*d[5mC]*dT*dT*dG*d[5mC]*d[5mC]*d[5mC]*eT*e[5mC]*eA*eG*eA) [compound 145678] | 60%
145679 (antisense eT*e[5mC]*eA*eA*eG*dG*dA*dG*d[5mC]*d[5mC]*d[5mC]*dT*dT*d[5mC]*dT*eT*eG*e[5mC]*e[5mC]*e[5mC]) [compound 145679] | 17%
145680 (antisense e[5mC]*eT*e[5mC]*e[5mC]*eT*dT*d[5mC]*dA*dA*dG*dG*dA*dG*d[5mC]*d[5mC]*e[5mC]*eT*eT*e[5mC]*eT) [compound 145680] | 0%
145681 (antisense e[5mC]*eT*e[5mC]*eT*e[5mC]*d[5mC]*dT*d[5mC]*d[5mC]*dT*dT*d[5mC]*dA*dA*dG*eG*eA*eG*e[5mC]*e[5mC]) [compound 145681] | 36%
145682 (antisense eG*eG*eG*eT*eG*d[5mC]*dT*d[5mC]*dT*d[5mC]*d[5mC]*dT*d[5mC]*d[5mC]*dT*eT*e[5mC]*eA*eA*eG) [compound 145682] | 31%
145683 (antisense e[5mC]*eA*eG*e[5mC]*eT*d[5mC]*d[5mC]*dT*dG*dT*dA*dG*dG*dG*dT*eG*e[5mC]*eT*e[5mC]*eT) [compound 145683] | 0%
145684 (antisense eT*e[5mC]*eT*eT*eT*dA*d[5mC]*dT*d[5mC]*d[5mC]*dG*dA*dA*dG*dA*e[5mC]*e[5mC]*eA*e[5mC]*eA) [compound 145684] | 43%
145687 (antisense e[5mC]*eT*e[5mC]*e[5mC]*eT*dG*dG*dA*dT*dA*dA*dG*dG*dA*dA*eG*eA*eA*e[5mC]*eT) [compound 145687] | 12%
145688 (antisense eA*e[5mC]*eT*eG*e[5mC]*d[5mC]*d[5mC]*dT*d[5mC]*dT*d[5mC]*dT*d[5mC]*d[5mC]*dT*eG*eG*eA*eT*eA) [compound 145688] | 25%
145689 (antisense e[5mC]*eA*eA*eG*eG*dG*d[5mC]*dG*dG*dA*d[5mC]*dT*dG*d[5mC]*d[5mC]*e[5mC]*eT*e[5mC]*eT*e[5mC]) [compound 145689] | 34%
145690 (antisense e[5mC]*eT*e[5mC]*e[5mC]*eG*dA*d[5mC]*d[5mC]*dT*d[5mC]*dG*dA*dG*dG*dG*e[5mC]*eA*e[5mC]*eT*eG) [compound 145690] | 56%
